Results on 18 compounds are retold here after patent publication EP4752152A1, “STEROID COMPOUND, AND PREPARATION METHOD THEREFOR AND USE THEREOF” (Cholesgen (Shanghai) Co.Ltd., priority 2023, dated 2025).

The experiment concerns SREBP pathway. The experiment in a line: SREBP luciferase reporter gene system (SRE-luciferase assay). The class given is cell-based, human. Conditions: Huh-7/SRE-luc cells, sterol-deficient medium, 0.01-10 µM. How it is done:
Huh-7/SRE-luc cells were incubated in sterol-deficient medium (5% lipoprotein deficient serum, 2 µM lovastatin, 10 µM mevalonic acid) with corresponding concentrations of compounds for 16 hours. The Huh-7/SRE-luc cells were human hepatoma cell line Huh-7 stably expressing LDLR promotor-luciferase and green fluorescent protein (GFP). These cells were obtained by transfecting Huh-7 with pLDLR-promotor-luciferase and pEGFP-N1 plasmids, followed by screening under G418 antibiotic selection pressure. The Huh-7 cells were purchased from ATCC, the pLDLR-promotor-luciferase plasmid was obtained by molecular cloning methods, and the pEGFP-N1 plasmid was purchased from Addgene.
After compound treatment, the cells were lysed with lysis buffer (E397A, Promega). After the addition of luciferase substrate (E1500, Promega), the activity of SRE-driven luciferase was measured using a BioTek Synergy HTX microplate reader (including but not limited to this type of instrument). The fluorescence intensity of green fluorescent protein (EGFP) was also measured using the above BioTek microplate reader (including but not limited to this type of instrument) and served as an internal control. The ratio of SRE-driven luciferase activity divided by the fluorescence intensity of green fluorescent protein was used as an indicator of SREBP pathway activity. The test data for each test compound were analyzed using Prism software (with the DMSO-treated group as the reference to calculate the compound inhibition rate, fitted using the Prism log(inhibitor) vs. response--Variable slope (four-parameter) model, calculation formula: Y = Bottom + (Top - Bottom)/(1 + 10^((LogIC50 - X) × HillSlope))), to obtain the IC50 parameters of the compounds.
Using the method described in 1.1, the inhibitory effect of the compounds of the present disclosure on the SREBP pathway was tested. The concentration gradient for each compound was designed as 0.01, 0.03, 0.1, 0.3, 1.0, 3.0, and 10 µM, with the vehicle DMSO as the control.
Background: A reporter such as luciferase makes a cellular process visible.

For the compound `COc1ncc(F)cc1C(O)CCC[C@@H](C)[C@H]1CC[C@H]2[C@H]3[C@H](CC[C@]12C)[C@@]1(C)CC[C@H](O)[C@H](O)[C@@H]1CC3(F)F` (stereo partly drawn) [Compound 151, (1R,3aS,3bS,5aR,6R,7S,9aR,9bS,11aR)-4,4-difluoro-1-[(2R)-6-(5-fluoro-2-methoxypyridin-3-yl)-6-hydroxyhexan-2-yl]-9a,11a-dimethylhexadecahydro-1H-cyclopenta[1,2-a]phenanthrene-6,7-diol], for the setting “Homo sapiens, Huh-7, 16 h”, the IC50 (as a rule, the concentration that gives 50% inhibition) turned out to be 0.18 µM. Still for that read-out and setting: to `COc1cc(Cl)ccc1[C@@H](O)CCC[C@@H](C)[C@H]1CC[C@H]2[C@H]3[C@H](CC[C@]12C)[C@@]1(C)CC[C@H](O)[C@H](O)[C@@H]1CC3(F)F` [Compound 112, (1R,3aS,3bS,5aR,6R,7S,9aR,9bS,11aR)-1-[(2R,6S)-6-(4-chloro-2-methoxyphenyl)-6-hydroxyhexan-2-yl]-4,4-difluoro-9a,11a-dimethylhexadecahydro-1H-cyclopenta[1,2-a]phenanthrene-6,7-diol] belongs 0.318 µM; to `COc1nccnc1[C@@H](O)CCC[C@@H](C)[C@H]1CC[C@H]2[C@H]3[C@H](CC[C@]12C)[C@@]1(C)CC[C@H](O)[C@H](O)[C@@H]1CC3(F)F` [Compound 155, (1R,3aS,3bS,5aR,6R,7S,9aR,9bS,11aR)-4,4-difluoro-1-[(2R,6S)-6-hydroxy-6-(3-methoxypyrazin-2-yl)hexan-2-yl]-9a,11a-dimethylhexadecahydro-1H-cyclopenta[1,2-a]phenanthrene-6,7-diol], 0.188 µM.

For the compound `COc1ccccc1C(O)CCC[C@@H](C)[C@H]1CC[C@H]2C3=C(F)C[C@H]4C[C@@H](O)CC[C@]4(C)[C@H]3CC[C@]12C` (stereo partly drawn) [Compound 73, (1R,3aR,5aR,7S,9aS,9bR,11aR)-4-fluoro-1-[(2R)-6-hydroxy-6-(2-methoxyphenyl)hexan-2-yl]-9a,11a-dimethyl-2,3,3a,5,5a,6,7,8,9,9a,9b,10,11,11a-tetradecahydro-1H-cyclopenta[1,2-a]phenanthren-7-ol], under “Homo sapiens, Huh-7, 16 h”, the IC50 worked out at 0.55 µM. With `COc1cccc(F)c1C(O)CCCC(C)C1CCC2C3=C(F)CC4C(O)C(O)CCC4(C)C3CCC21C` (single isomer, unassigned) [Compound 164], the IC50 (16 hours) stood at 0.295 µM.

Consider `COc1ccc(F)c(C(O)CCC[C@@H](C)[C@H]2CC[C@H]3C4=C(F)C[C@H]5[C@@H](O)[C@@H](O)CC[C@]5(C)[C@H]4CC[C@]23C)c1` (stereo partly drawn) [Compound 174, (1R,3aR,5aR,6R,7S,9aR,9bR,11aR)-4-fluoro-1-[(2R)-6-(2-fluoro-5-methoxyphenyl)-6-hydroxyhexan-2-yl]-9a,11a-dimethyl-2,3,3a,5,5a,6,7,8,9,9a,9b,10,11,11a-tetradecahydro-1H-cyclopenta[1,2-a]phenanthrene-6,7-diol], for which, under “Homo sapiens, Huh-7, 16 h”, the half-maximal inhibitory concentration (IC50) stood at 0.148 µM. The same measure, in the same setting: the figure for `COc1cc(F)c(C(O)CCCC(C)C2CCC3C4C(CCC23C)C2(C)CCC(O)C(O)C2CC4(F)F)c(F)c1` (single isomer, unassigned) [Compound 204, (1R,3aS,3bS,5aR,6R,7S,9aR,9bS,11aR)-1-[(2R,6S)-6-(2,6-difluoro-4-methoxyphenyl)-6-hydroxyhexan-2-yl]-4,4-difluoro-9a,11a-dimethylhexadecahydro-1H-cyclopenta[1,2-a]phenanthrene-6,7-diol or (1R,3aS,3bS,5aR,6R,7S,9aR,9bS,11aR)-1-[(2R,6R)-6-(2,6-difluoro-4-methoxyphenyl)-6-hydroxyhexan-2-yl]-4,4-difluoro-9a,11a-dimethylhexadecahydro-1H-cyclopenta[1,2-a]phenanthrene-6,7-diol] is 0.145 µM.

For the compound `COc1ccc(F)cc1[C@H](O)CCC[C@@H](C)[C@H]1CC[C@H]2[C@H]3[C@H](CC[C@]12C)[C@@]1(C)CC[C@H](O)[C@H](O)[C@@H]1CC3(F)F` [Compound 169, (1R,3aS,3bS,5aR,6R,7S,9aR,9bS,11aR)-4,4-difluoro-1-[(2R,6R)-6-(5-fluoro-2-methoxyphenyl)-6-hydroxyhexan-2-yl]-9a,11a-dimethylhexadecahydro-1H-cyclopenta[1,2-a]phenanthrene-6,7-diol], the IC50 (Homo sapiens, Huh-7, 16 h) came out at 0.075 µM. On the same count and under the same terms, to `C[C@H](CCCC(O)c1cnc2c(c1)OC(F)(F)O2)[C@H]1CC[C@H]2[C@H]3[C@H](CC[C@]12C)[C@@]1(C)CC[C@H](O)[C@H](O)[C@@H]1CC3(F)F` (single isomer, unassigned) [Compound 285] belongs 0.253 µM.

With `C[C@H](CCC[C@@H](O)c1cc2ccccc2o1)[C@H]1CC[C@H]2[C@H]3[C@H](CC[C@]12C)[C@@]1(C)CC[C@H](O)[C@H](O)[C@@H]1CC3(F)F` [Compound 322, (1R,3aS,3bS,5aR,6R,7S,9aR,9bS,11aR)-1-[(2R,6R)-6-(1-benzofuran-2-yl)-6-hydroxyhexan-2-yl]-4,4-difluoro-9a,11a-dimethylhexadecahydro-1H-cyclopenta[1,2-a]phenanthrene-6,7-diol], the 50% inhibitory concentration (IC50) (16 hours) came out at 0.339 µM.

For the compound `C[C@H](CCN(C)C(=O)c1ccccc1F)[C@H]1CC[C@H]2[C@@H]3CC[C@@]4(C)[C@@H](O)[C@@H](O)CC[C@]4(C)[C@H]3CC[C@]12C` [Compound 15B, 2-fluoro-N-[(3R)-3-[(1R,3aS,3bS,5aR,6R,7S,9aR,9bS,11aR)-6,7-dihydroxy-5a,9a,11a-trimethylhexadecahydro-1H-cyclopenta[1,2-a]phenanthren-1-yl]butyl]-N-methylbenzamide], for the setting “16 hours”, the IC50 is 0.32 µM. Still for that read-out and setting: to `C[C@H](CCC[C@H](O)c1cc2ccccc2o1)[C@H]1CC[C@H]2[C@H]3[C@H](CC[C@]12C)[C@@]1(C)CC[C@H](O)[C@H](O)[C@@H]1CC3(F)F` [Compound 321, (1R,3aS,3bS,5aR,6R,7S,9aR,9bS,11aR)-1-[(2R,6S)-6-(1-benzofuran-2-yl)-6-hydroxyhexan-2-yl]-4,4-difluoro-9a,11a-dimethylhexadecahydro-1H-cyclopenta[1,2-a]phenanthrene-6,7-diol] belongs 0.114 µM; to `C[C@H](CCCC(O)c1cccc2cn[nH]c12)[C@H]1CC[C@H]2[C@H]3[C@H](CC[C@]12C)[C@@]1(C)CC[C@H](O)[C@H](O)[C@@H]1CC3(F)F` (single isomer, unassigned) [Compound 269, (1R,3aS,3bS,5aR,6R,7S,9aR,9bS,11aR)-4,4-difluoro-1-[(2R,6R)-6-hydroxy-6-(1H-indazol-7-yl)hexan-2-yl]-9a,11a-dimethylhexadecahydro-1H-cyclopenta[1,2-a]phenanthrene-6,7-diol or (1R,3aS,3bS,5aR,6R,7S,9aR,9bS,11aR)-4,4-difluoro-1-[(2R,6S)-6-hydroxy-6-(1H-indazol-7-yl)hexan-2-yl]-9a,11a-dimethylhexadecahydro-1H-cyclopenta[1,2-a]phenanthrene-6,7-diol], 0.8 µM. For the compound `COc1cc(Cl)ccc1[C@H](O)CCC[C@@H](C)[C@H]1CC[C@H]2C3=C(F)C[C@H]4[C@@H](O)[C@@H](O)CC[C@]4(C)[C@H]3CC[C@]12C` [Compound 110, (1R,3aR,5aR,6R,7S,9aR,9bR,11aR)-1-[(2R,6R)-6-(4-chloro-2-methoxyphenyl)-6-hydroxyhexan-2-yl]-4-fluoro-9a,11a-dimethyl-2,3,3a,5,5a,6,7,8,9,9a,9b,10,11,11a-tetradecahydro-1H-cyclopenta[1,2-a]phenanthrene-6,7-diol], the IC50 (Homo sapiens, Huh-7, 16 h) was 1.13 µM.

For `C[C@H](CCCC(O)c1ccncc1)[C@H]1CC[C@H]2[C@H]3[C@H](CC[C@]12C)[C@@]1(C)CC[C@H](O)[C@H](O)[C@@H]1CC3(F)F` (stereo partly drawn) [Compound 76, (1R,3aS,3bS,5aR,6R,7S,9aR,9bS,11aR)-4,4-difluoro-1-[(2R)-6-hydroxy-6-(pyridin-4-yl)hexan-2-yl]-9a,11a-dimethylhexadecahydro-1H-cyclopenta[1,2-a]phenanthrene-6,7-diol], the IC50 (Homo sapiens, Huh-7, 16 h) was determined as 0.9 µM. Still for that read-out and setting: to `C[C@H](CCC(=O)N(C)c1ccccc1F)[C@H]1CC[C@H]2C3=C(F)C[C@H]4[C@@H](O)[C@@H](O)CC[C@]4(C)[C@H]3CC[C@]12C` [Compound 96, (4R)-4-[(1R,3aR,5aR,6R,7S,9aR,9bR,11aR)-4-fluoro-6,7-dihydroxy-9a,11a-dimethyl-2,3,3a,5,5a,6,7,8,9,9a,9b,10,11,11a-tetradecahydro-1H-cyclopenta[1,2-a]phenanthren-1-yl]-N-(2-fluorophenyl)-N-methylpentanamide] belongs 0.34 µM; to `C[C@H](CCCC(O)c1ccccc1OC(F)(F)F)[C@H]1CC[C@H]2C3=C(F)C[C@H]4[C@@H](O)[C@@H](O)CC[C@]4(C)[C@H]3CC[C@]12C` (stereo partly drawn) [Compound 2, (1R,3aR,5aR,6R,7S,9aR,9bR,11aR)-4-fluoro-1-[(2R)-6-hydroxy-6-{2-[(trifluoromethyl)oxy]phenyl}hexan-2-yl]-9a,11a-dimethyl-2,3,3a,5,5a,6,7,8,9,9a,9b,10,11,11a-tetradecahydro-1H-cyclopenta[1,2-a]phenanthrene-6,7-diol], 0.45 µM. Same read-out and setting: the figure for `C[C@H](CCC1CC(=O)C1)[C@H]1CC[C@H]2[C@@H]3CC[C@H]4C[C@@H](O)CC[C@]4(C)[C@H]3CC[C@]12C` [Compound 129, 3-[(3R)-3-[(1R,3aS,3bR,5aS,7S,9aS,9bS,11aR)-7-hydroxy-9a,11a-dimethylhexadecahydro-1H-cyclopenta[1,2-a]phenanthren-1-yl]butyl]cyclobutan-1-one] is 0.32 µM.
